Reference: patent publication US8883698B2, “Compositions comprising a near terminal-branched compound and methods of making the same” (The Procter & Gamble Co, priority 2010, dated 2014)

Experiment: Dynamic Interfacial Tension analysis (Kruss DVT30 Drop Volume Tensiometer), ascending canola oil drop in aqueous surfactant phase
Type: physicochemical
Conditions: 6 gpg water hardness; 15° C.
Procedure: The Dynamic Interfacial Tension analysis was performed on a Kruss® DVT30 Drop Volume Tensiometer. The instrument is configured to measure the interfacial tension of an ascending oil drop in aqueous detergent (surfactant) phase. The oil was canola oil. The aqueous detergent and oil phases are temperature controlled via a Polyscience® circulating water temperature controller attached to tensiometer. A dynamic interfacial tension curve is generated by dispensing the oil drops into the aqueous detergent phase from an ascending capillary with diameter of 0.2540 mm over a range of flow rates and measuring the interfacial tension at each flow rate. Data is generated at oil dispensing flow rates of 500 uL/min-1 uL/min with 2 flow rates per decade on a logarithmic scale (7 flow rates measured). Interfacial tension is measured on three oil drops per flow rate, then averaged. Interfacial tension is reported in units of mN/m. Surface age of the oil drops at each flow rate is also recorded and plots can be generated either of interfacial tension (y-axis) versus oil flow rate (x-axis) or interfacial tension (y-axis) versus oil drop surface age (x-axis).

- precipitation observed during interfacial tension measurement: NM (precipitated)
Substance: 13-Methyltetradecylsulfate
